# Measurements reported in US20050255595A1, “Genetically modified non-human mammal cells, procedure for their production and use in toxicity tests” (priority 2002, published 2005).
# Like-named read-outs stand apart in the source and are kept apart here.
# Experiments:
# [1] = system: primary hepatocytes (PHGH); assay: cellular survival of PHGH, Trypan Blue exclusion; assay type: cell-based, mice; design: % cellular survival, PHGH 1 + 24 h / % cellular survival, PHGH 5 + 24 / % vitality of the cells, PHGH 1 + 24 h / % vitality of the cells, PHGH 5 + 24 h: unit of the concentration uncertain; settings: for % vitality of the cells, PHGH 1 + 24 h / % cellular survival, PHGH 1 + 24 h: 1 h treatment + 24 h normal medium; for % vitality of the cells, PHGH 5 + 24 h / % cellular survival, PHGH 5 + 24: 5 h treatment + 24 h normal medium
# From the text: (§1) This different behaviour is explained by the greater sensitivity to the toxicant of the PHGH with respect to the MMH/GH5 as shown by analysis of the cellular vitality performed with the Trypan Blue method (FIG. 1, graph B). […] Therefore the greater resistance of the cells MMH/GH/5 to the toxicants constitutes another evident advantage as it permits the exclusion of false negatives in which the non-release of hGH, due to cellular death, is interpreted as non-toxicity of the compound. When the supernatant is collected after 5 hours of treatment followed by 24 hours of culture with normal medium (FIG. 1 graph C) the PHGHs respond, at the lowest concentrations of the two toxicants, with high levels of secretion of hGH and, at the highest concentrations, with low levels of secretion of hGH (lower cellular survival, graph D).
# (§2) In table 3 the cellular survival percentage was determined with the Trypan Blue exclusion method. […]
# (§3) For treatment, the two types of cells were treated with different concentrations of the compounds for 1 or 5 hours and then with normal medium for a further 24 hours. The effects of the treatment were assessed as described previously for the inorganic toxicants.
# [2] = system: MMH/GH5 cells; assay: cellular survival of MMH/GH5, Trypan Blue exclusion; assay type: cell-based, mice; design: % cellular survival, MMHGH/5 1 + 24 h / % cellular survival, MMHGH/5 5 + 24 / % vitality of the cells, MMH/GH 1 + 24 h / % vitality of the cells, MMH/GH 5 + 24 h: unit of the concentration uncertain; settings: for % vitality of the cells, MMH/GH 1 + 24 h / % cellular survival, MMHGH/5 1 + 24 h: 1 h treatment + 24 h normal medium; for % vitality of the cells, MMH/GH 5 + 24 h / % cellular survival, MMHGH/5 5 + 24: 5 h treatment + 24 h normal medium
# From the text: as §1, §2, §3
# [3] = system: MMH/GH5 cells (Clone 5); design: hGH secreted, MMHGH/5 1 + 24 h / hGH secreted, MMHGH/5 5 + 24 / hGH secreted, MMHGH/5 1 h / hGH secreted, MMHGH/5 5 h: dose or concentration left out as unconfirmed
# [4] = system: single transgenic HPS70/hGH primary hepatocytes (PHGH); assay: toxicity test, hGH secretion by primary transgenic hepatocytes (PHGH); assay type: cell-based, mice; design: hGH secreted, PHGH 1 h / hGH secreted, PHGH 5 h / hGH secreted, PHGH 1 + 24 h / hGH secreted, PHGH 5 + 24: unit of the concentration uncertain
# From the text: On the basis of the results illustrated, for the further analyses, clone no. […] The response to the toxic stress of the clone MMH/GH5 was then compared with the one obtained in single transgenic HPS70/hGH primary hepatocytes (PHGH). A representative sample of the cell line derived from said clone MMH/GH5 was deposited in accordance with and for the purposes of the Treaty of Budapest on the international recognition of deposit of micro-organisms for the purposes of the patents procedure with the AID “Centro di Biotecnologie Avanzate (CBA), Interlab Cell Line Collection (ICLC)” Servizio Biotecnologie, Largo R. Benzi, 10, 16132 Genova, Italy, on Jul. 30, 2002, where it was given identification number PD 02007.
# as §2, §3
# [5] = 50 (unit uncertain), Trypan Blue (Table 4)
# [6] = 100 (unit uncertain), Trypan Blue
# [7] = 25 (unit uncertain), Trypan Blue
# [8] = 50 (unit uncertain), Trypan Blue (Table 3)
# [9] = 10 (unit uncertain), Trypan Blue
structure (smiles),measurement,setting,value
"Oc1c(Cl)c(Cl)c(Cl)c(Cl)c1Cl [PCP, PentaChloroPhenol]","% vitality of the cells, PHGH 1 + 24 h",[1]; [5],10%
same,"% vitality of the cells, PHGH 5 + 24 h",[1]; [5],10%
same,"% vitality of the cells, PHGH 1 + 24 h",[1]; [6],0%
same,"% vitality of the cells, PHGH 5 + 24 h",[1]; [6],0%
same,toxicity for the PHGHs,"[1]; words, Table 4",toxic
same,"% vitality of the cells, MMH/GH 1 + 24 h",[2]; [5],90%
same,"% vitality of the cells, MMH/GH 5 + 24 h",[2]; [5],70%
same,"% vitality of the cells, MMH/GH 1 + 24 h",[2]; [6],80%
same,"% vitality of the cells, MMH/GH 5 + 24 h",[2]; [6],50%
same,induction of a response in MMH/GH5,"[3]; words, Table 4",requires a prolonged exposure time to induce a response
"Oc1c(Cl)c(Cl)c(O)c(Cl)c1Cl [TCHQ, TetraChloroHydroQuinone]","% vitality of the cells, PHGH 1 + 24 h",[1]; [5],50%
same,"% vitality of the cells, PHGH 5 + 24 h",[1]; [5],60%
same,"% vitality of the cells, PHGH 1 + 24 h",[1]; [6],0%
same,"% vitality of the cells, PHGH 5 + 24 h",[1]; [6],0%
same,"% vitality of the cells, MMH/GH 1 + 24 h",[2]; [5],50%
same,"% vitality of the cells, MMH/GH 5 + 24 h",[2]; [5],30%
same,"% vitality of the cells, MMH/GH 1 + 24 h",[2]; [6],10%
same,"% vitality of the cells, MMH/GH 5 + 24 h",[2]; [6],0%
same,response in MMH/GH5,"[3]; compared with PCP, words",stronger response
same,response in PHGH,"[4]; compared with PCP, words",stronger response
CCCCC[C@H](O)/C=C/[C@H]1C=CC(=O)[C@@H]1C/C=C\CCCC(=O)O [PGA2],"% cellular survival, PHGH 1 + 24 h",[1]; [7],90%
same,"% cellular survival, PHGH 5 + 24",[1]; [7],90%
same,"% cellular survival, PHGH 1 + 24 h",[1]; [8],90%
same,"% cellular survival, PHGH 5 + 24",[1]; [8],90%
same,"% cellular survival, MMHGH/5 1 + 24 h",[2]; [7],90%
same,"% cellular survival, MMHGH/5 5 + 24",[2]; [7],90%
same,"% cellular survival, MMHGH/5 1 + 24 h",[2]; [8],90%
same,"% cellular survival, MMHGH/5 5 + 24",[2]; [8],90%
same,"hGH secreted, MMHGH/5 1 h","[3]; 25, 1 h treatment",1 pg hGH/10^6 cells
same,"hGH secreted, MMHGH/5 1 + 24 h","[3]; 25, 1 h treatment + 24 h normal medium",2 pg hGH/10^6 cells
same,"hGH secreted, MMHGH/5 5 h","[3]; 25, 5 h treatment",53 pg hGH/10^6 cells
same,"hGH secreted, MMHGH/5 5 + 24","[3]; 25, 5 h treatment + 24 h normal medium",0 pg hGH/10^6 cells
same,"hGH secreted, MMHGH/5 1 h","[3]; 50, 1 h treatment (Table 3)",8 pg hGH/10^6 cells
same,"hGH secreted, MMHGH/5 1 + 24 h","[3]; 50, 1 h treatment + 24 h normal medium (Table 3)",92 pg hGH/10^6 cells
same,"hGH secreted, MMHGH/5 5 h","[3]; 50, 5 h treatment (Table 3)",107 pg hGH/10^6 cells
same,"hGH secreted, MMHGH/5 5 + 24","[3]; 50, 5 h treatment + 24 h normal medium (Table 3)",0 pg hGH/10^6 cells
same,"hGH secreted, PHGH 1 h","[4]; 25 (unit uncertain), 1 h treatment",1 pg hGH/10^6 cells
same,"hGH secreted, PHGH 1 + 24 h","[4]; 25 (unit uncertain), 1 h treatment + 24 h normal medium",0 pg hGH/10^6 cells
same,"hGH secreted, PHGH 5 h","[4]; 25 (unit uncertain), 5 h treatment",56 pg hGH/10^6 cells
same,"hGH secreted, PHGH 5 + 24","[4]; 25 (unit uncertain), 5 h treatment + 24 h normal medium",10 pg hGH/10^6 cells
same,"hGH secreted, PHGH 1 h","[4]; 50 (unit uncertain), 1 h treatment (Table 3)",27 pg hGH/10^6 cells
same,"hGH secreted, PHGH 1 + 24 h","[4]; 50 (unit uncertain), 1 h treatment + 24 h normal medium (Table 3)",26 pg hGH/10^6 cells
same,"hGH secreted, PHGH 5 h","[4]; 50 (unit uncertain), 5 h treatment (Table 3)",95 pg hGH/10^6 cells
same,"hGH secreted, PHGH 5 + 24","[4]; 50 (unit uncertain), 5 h treatment + 24 h normal medium (Table 3)",37 pg hGH/10^6 cells
"c1ccc2c(c1)cc1ccc3cccc4ccc2c1c34 [BaP, Benzo(a)Pyrene]","% vitality of the cells, PHGH 1 + 24 h",[1]; [9],50%
same,"% vitality of the cells, PHGH 5 + 24 h",[1]; [9],50%
same,"% vitality of the cells, PHGH 1 + 24 h",[1]; [5],50%
same,"% vitality of the cells, PHGH 5 + 24 h",[1]; [5],30%
same,"% vitality of the cells, MMH/GH 1 + 24 h",[2]; [9],90%
same,"% vitality of the cells, MMH/GH 5 + 24 h",[2]; [9],90%
same,"% vitality of the cells, MMH/GH 1 + 24 h",[2]; [5],90%
same,"% vitality of the cells, MMH/GH 5 + 24 h",[2]; [5],90%
same,stimulation of the promoter HSP70 in the PHGHs,"[4]; words, Table 4",does not stimulate
